ChEMBL document CHEMBL1201862, “PubChem BioAssay data set” (2004)
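Results reflect a 48-hour exposure of cells in 96-well plates to compound at five concentrations. GI50: concentration for 50% inhibition of growth.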 Active and inactive are the calls of the source. Cut-off read from the data, not from the text of the source: active = GI50 up to about 1.1 µM and inactive = higher.

Assays:
Test in all cases: NCI tumour cell line growth inhibition, 48 h
PC-3 = system: PC-3
BT-549 = system: BT-549
SW-620 = system: SW-620
MCF7 = system: MCF7
UACC-257 = system: UACC-257
LOX IMVI = system: LOX IMVI
ACHN = system: ACHN
786-0 = system: 786-0
SF-268 = system: SF-268
SN12C = system: SN12C
KM12 = system: KM12
SK-OV-3 = system: SK-OV-3
CCRF-CEM = system: CCRF-CEM
DU-145 = system: DU-145
M14 = system: M14
OVCAR-4 = system: OVCAR-4
SK-MEL-28 = system: SK-MEL-28
OVCAR-8 = system: OVCAR-8

Row | Structure (SMILES) | GI50 (PC-3) | GI50 (BT-549) | GI50 (SW-620) | GI50 (MCF7) | GI50 (UACC-257) | GI50 (LOX IMVI) | GI50 (ACHN) | GI50 (786-0) | GI50 (SF-268) | GI50 (SN12C) | GI50 (KM12) | GI50 (SK-OV-3) | GI50 (CCRF-CEM) | GI50 (DU-145) | GI50 (M14) | GI50 (OVCAR-4) | GI50 (SK-MEL-28) | GI50 (OVCAR-8)
1 | O=C1Cc2cc3ccccc3nc2-c2ccccc2N1 | > 100 µM (inactive) | 92.9 µM (inactive) | > 100 µM (inactive) | 49 µM (inactive) | 99.1 µM (inactive) | 38.6 µM (inactive) | 54.7 µM (inactive) | 35.1 µM (inactive) | 81.5 µM (inactive) | > 100 µM (inactive) | > 100 µM (inactive) | 38 µM (inactive) | > 100 µM (inactive) | 79.6 µM (inactive) | > 100 µM (inactive) | 45.6 µM (inactive) | > 100 µM (inactive) | 35.3 µM (inactive)
2 | OCCOc1ccccc2cccc1-2 | > 100 µM (inactive) | > 100 µM (inactive) | > 100 µM (inactive) | > 100 µM (inactive) | > 100 µM (inactive) | > 100 µM (inactive) | > 100 µM (inactive) | > 100 µM (inactive) | > 100 µM (inactive) | > 100 µM (inactive) | > 100 µM (inactive) | > 100 µM (inactive) | > 100 µM (inactive) | > 100 µM (inactive) | > 100 µM (inactive) | 34 µM (inactive) | > 100 µM (inactive) | > 100 µM (inactive)
3 | O=C(O)CCSC1=NCCN1 | > 100 µM (inactive) | > 100 µM (inactive) | > 100 µM (inactive) | > 100 µM (inactive) | 64 µM (inactive) | > 100 µM (inactive) | > 100 µM (inactive) | > 100 µM (inactive) | > 100 µM (inactive) | > 100 µM (inactive) | > 100 µM (inactive) | > 100 µM (inactive) | 98.6 µM (inactive) | > 100 µM (inactive) | > 100 µM (inactive) | > 100 µM (inactive) | > 100 µM (inactive) | > 100 µM (inactive)
4 | CCC(/C=C/c1ccccc1)=N\NC(=S)N/N=C(/C=C/c1ccccc1)CC | 72.9 µM (inactive) | > 100 µM (inactive) | > 100 µM (inactive) | 41.8 µM (inactive) | 39.6 µM (inactive) | 21.3 µM (inactive) | 34.2 µM (inactive) | 48 µM (inactive) | 12.8 µM (inactive) | 36.6 µM (inactive) | 31.8 µM (inactive) | 20.1 µM (inactive) | 7.55 µM (inactive) | 26.1 µM (inactive) | 46.1 µM (inactive) | 35.2 µM (inactive) | > 100 µM (inactive) | 20.4 µM (inactive)
5 | CCCCCCCCCc1cccc(N2C(N)=NC(N)=NC2(C)C)c1 | < 0.0184 µM (active) | 1 µM (active) | < 0.01 µM (active) | < 0.0204 µM (active) | 0.0611 µM (active) | < 0.01 µM (active) | < 0.0158 µM (active) | < 0.01 µM (active) | < 0.023 µM (active) | 0.0198 µM (active) | 0.0139 µM (active) | 1.62 µM (inactive) | 0.197 µM (active) | < 0.0307 µM (active) | < 0.01 µM (active) | < 0.01 µM (active) | 0.871 µM (active) | < 0.01 µM (active)
6 | CCCCC(=C=C(C)CO)C1CCCN1C(=O)OC(C)(C)C (stereo not given) | 18.5 µM (inactive) | 16.1 µM (inactive) | 29.2 µM (inactive) | 20.4 µM (inactive) | 16 µM (inactive) | 16.8 µM (inactive) | 24.8 µM (inactive) | 16.4 µM (inactive) | 17.5 µM (inactive) | 17.3 µM (inactive) | 18.4 µM (inactive) | 24.5 µM (inactive) | 14.3 µM (inactive) | 18.1 µM (inactive) | 18.5 µM (inactive) | 17.3 µM (inactive) | 18.4 µM (inactive) | 18.2 µM (inactive)
7 | COCC1OC(S(=O)(=O)c2ccccc2)C(O)C(OC)C1OC (stereo not given) | > 100 µM (inactive) | > 100 µM (inactive) | > 100 µM (inactive) | > 100 µM (inactive) | > 100 µM (inactive) | > 100 µM (inactive) | > 100 µM (inactive) | > 100 µM (inactive) | > 100 µM (inactive) | > 100 µM (inactive) | > 100 µM (inactive) | > 100 µM (inactive) | > 100 µM (inactive) | > 100 µM (inactive) | > 100 µM (inactive) | > 100 µM (inactive) | > 100 µM (inactive) | > 100 µM (inactive)
8 | COc1c(C)c(C/C=C(\C)CCCCO[Si](c2ccccc2)(c2ccccc2)C(C)(C)C)c(OC)c(OC)c1OC | > 85.7 µM (inactive) | > 46.5 µM (inactive) | 45.6 µM (inactive) | > 46.5 µM (inactive) | > 46.5 µM (inactive) | 15.5 µM (inactive) | 16.2 µM (inactive) | 22.7 µM (inactive) | 65.5 µM (inactive) | 27.7 µM (inactive) | 14.8 µM (inactive) | > 46.5 µM (inactive) | > 46.5 µM (inactive) | 27.9 µM (inactive) | > 46.5 µM (inactive) | 28.1 µM (inactive) | > 100 µM (inactive) | 20.2 µM (inactive)
9 | O=C1NC(N2CCOCC2)=N/C1=C\c1ccccc1 | > 100 µM (inactive) | > 100 µM (inactive) | > 100 µM (inactive) | > 100 µM (inactive) | > 100 µM (inactive) | > 100 µM (inactive) | > 100 µM (inactive) | > 100 µM (inactive) | > 100 µM (inactive) | > 100 µM (inactive) | > 100 µM (inactive) | > 100 µM (inactive) | > 100 µM (inactive) | > 100 µM (inactive) | > 100 µM (inactive) | > 100 µM (inactive) | > 100 µM (inactive) | > 100 µM (inactive)
10 | C=CCc1cccc2cc(C(=O)Nc3ccccn3)c(=N)oc12 | > 100 µM (inactive) | > 100 µM (inactive) | > 100 µM (inactive) | > 100 µM (inactive) | > 100 µM (inactive) | > 100 µM (inactive) | 45.4 µM (inactive) | 28.7 µM (inactive) | > 100 µM (inactive) | > 100 µM (inactive) | > 100 µM (inactive) | > 100 µM (inactive) | > 100 µM (inactive) | > 100 µM (inactive) | > 100 µM (inactive) | > 100 µM (inactive) | > 100 µM (inactive) | > 100 µM (inactive)
11 | C/C(=N\Nc1nc2cc(C(F)(F)F)ccc2s1)c1ccccn1 | 1.67 µM (inactive) | 3.35 µM (inactive) | 0.102 µM (active) | 0.0753 µM (active) | 0.452 µM (active) | 0.287 µM (active) | 0.113 µM (active) | 0.34 µM (active) | 0.333 µM (active) | 0.23 µM (active) | 0.526 µM (active) | 0.245 µM (active) | 0.0853 µM (active) | 0.401 µM (active) | 0.282 µM (active) | 0.321 µM (active) | 0.211 µM (active) | 0.0621 µM (active)
12 | Cc1c(-c2ccccc2)[nH]c2ccc(Cl)cc2c1=O | 47.6 µM (inactive) | 62.2 µM (inactive) | 75.2 µM (inactive) | 25.2 µM (inactive) | 27.8 µM (inactive) | 27.9 µM (inactive) | 29 µM (inactive) | 29.8 µM (inactive) | 30.6 µM (inactive) | > 100 µM (inactive) | 0.263 µM (active) | 21.7 µM (inactive) | 55.8 µM (inactive) | 70 µM (inactive) | 34.7 µM (inactive) | 21.8 µM (inactive) | 40.6 µM (inactive) | 22.3 µM (inactive)
13 | O=C1Nc2ccc([N+](=O)[O-])cc2/C1=N/NC(=S)Nc1ccc([N+](=O)[O-])cc1 | 24.2 µM (inactive) | 16.4 µM (inactive) | 39.2 µM (inactive) | 25.4 µM (inactive) | 20.8 µM (inactive) | 22.2 µM (inactive) | 24.8 µM (inactive) | 16.9 µM (inactive) | 32.6 µM (inactive) | 32.3 µM (inactive) | 18.6 µM (inactive) | 22.4 µM (inactive) | 18.7 µM (inactive) | 21.5 µM (inactive) | 19.6 µM (inactive) | 19.3 µM (inactive) | 26.5 µM (inactive) | 31.5 µM (inactive)
14 | Cc1cc(S(=O)(=O)Nc2nc3ccsc3c(=O)n2N)c(S)cc1Cl | > 100 µM (inactive) | > 100 µM (inactive) | > 100 µM (inactive) | > 100 µM (inactive) | > 100 µM (inactive) | 78.9 µM (inactive) | 56.9 µM (inactive) | > 100 µM (inactive) | 42.2 µM (inactive) | > 100 µM (inactive) | 80.7 µM (inactive) | > 100 µM (inactive) | 71.9 µM (inactive) | > 100 µM (inactive) | 68.7 µM (inactive) | 68.1 µM (inactive) | > 100 µM (inactive) | > 100 µM (inactive)
15 | O=C1OC2(c3ccccc31)c1cc(I)c(O)c(I)c1Oc1c2cc(I)c(O)c1I [ERYTHROSINE] | > 100 µM (inactive) | 45.8 µM (inactive) | > 100 µM (inactive) | > 100 µM (inactive) | > 100 µM (inactive) | 76.6 µM (inactive) | 96.8 µM (inactive) | > 100 µM (inactive) | > 100 µM (inactive) | > 100 µM (inactive) | 10.4 µM (inactive) | > 100 µM (inactive) | > 100 µM (inactive) | > 100 µM (inactive) | 68.2 µM (inactive) | > 100 µM (inactive) | > 100 µM (inactive) | > 100 µM (inactive)
